{
  "source": "paper PMC4729491",
  "about": "“The Cellular Thioredoxin-1/Thioredoxin Reductase-1 Driven Oxidoreduction Represents a Chemotherapeutic Target for HIV-1 Entry Inhibition” (PLoS ONE, 2016)",
  "key": {"HIV-1(IIIB) [1]": {"tested_on": "HIV-1(IIIB)", "assay": "Antiviral activity in PHA-stimulated PBMCs (p24 ELISA), HIV-1(IIIB)", "assay_type": "cell-based", "settings": "PHA-stimulated PBMCs; mean ± SD; read-out: EC50 HIV-1 (IIIB)", "experimental": "To test the antiviral activity in fresh, PHA-stimulated PBMCs, an experiment was performed as previously described. Briefly, the cells were preincubated with HIV-1(IIIB), HIV-1(BaL) or HIV-1(HE) for 1 h at 37°C, using a viral load of 1000 x CCID50 per ml. Then, cell suspensions containing virus and 2 x 10^5 PBMCs were seeded in a 96-well microtiter plate and a serial dilution of compound was added, in a total volume of 200 μl. After 4 days, the cells were passaged and fresh culture medium, containing IL-2 and compound, was added. Three days later, cellular supernatants were harvested and viral replication in the presence of the compounds was quantified using a p24 enzyme-linked immunosorbent assay (ELISA) (Perkin Elmer, Brussels, Belgium). The half maximal effective concentration (EC50) was defined as the compound concentration that is required to block viral replication by 50%."}, "TrxR1": {"molecular_target": "T1, TrxR1 (Homo sapiens, UniProt Q16881)", "T1 construct": "purchased IMCO Corporation (Stockholm, Sweden) or Sino Biological Inc (Zoersel, Belgium)", "T1 sequence (Q16881 1-499 isoform Q16881-5)": "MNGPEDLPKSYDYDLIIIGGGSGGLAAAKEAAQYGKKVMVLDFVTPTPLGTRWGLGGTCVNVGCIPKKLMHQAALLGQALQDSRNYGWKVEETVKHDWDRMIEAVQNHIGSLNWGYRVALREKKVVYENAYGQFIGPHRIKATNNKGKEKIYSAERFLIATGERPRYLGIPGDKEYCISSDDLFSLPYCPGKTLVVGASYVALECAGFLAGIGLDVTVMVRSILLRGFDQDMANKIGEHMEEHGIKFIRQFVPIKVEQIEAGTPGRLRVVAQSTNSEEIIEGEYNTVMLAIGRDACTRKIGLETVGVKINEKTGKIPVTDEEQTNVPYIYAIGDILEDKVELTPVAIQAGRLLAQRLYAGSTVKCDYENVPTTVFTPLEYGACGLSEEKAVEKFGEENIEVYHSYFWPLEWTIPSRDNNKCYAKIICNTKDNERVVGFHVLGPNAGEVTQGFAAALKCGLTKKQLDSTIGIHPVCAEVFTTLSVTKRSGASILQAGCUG", "assay": "SPR binding to immobilized TrxR1", "settings": "10, 50 and 250 μM", "experimental": "SPR analysis was performed to evaluate binding of TE-2 to immobilized recombinant TrxR1, PDI, gp120, gp41 and sCD4. Therefore, these ligands were immobilized on a CM5 sensor chip (GE Healthcare, Uppsala, Sweden) using standard amine coupling in the presence of 10 mM sodium acetate, pH 5. A high ligand-density chip was created, with ligand densities of 6759, 5004, 4119, 2900 and 5569 RU, respectively. A reference flow cell was used to control for non-specific binding and refractive index changes. All interactions were studied at 25°C on a Biacore T200 instrument (GE Healthcare, Uppsala, Sweden) in HBS-P (10 mM HEPES, 150 mM NaCl and 0.05% surfactant P20; pH 7.4) supplemented with 10 mM CaCl2 and 5% DMSO. TE-2 was tested at the concentrations 10, 50 and 250 μM. Samples were injected during 2 minutes at a flow rate of 30 μl/min, followed by a dissociation phase of 2 minutes. Each injection was followed by a regeneration step with 50 mM NaOH (injected during 10 seconds at a flow rate of 100 μl/min)."}, "[2]": {"tested_on": "HuT-78/HIV-1 and Sup-T1 cells", "assay": "cells", "assay_type": "cell-based", "settings": "cocultures of HuT-78/HIV-1 and Sup-T1 cells, ~24 hours; read-out: IC50 inhibition of syncytia formation", "experimental": "Persistently infected HuT-78/HIV-1 cells were thoroughly washed to eliminate free virions. Next, 1 x 10^5 HuT-78/HIV-1 cells were co-cultivated with 1 x 10^5 Sup-T1 cells in 96-well plates (200 μl/well) during 20 h at 37°C, in the presence or absence of a serial dilution of compound. Afterwards, the formation of syncytia was evaluated microscopically. The EC50 was defined as the compound concentration required to suppress syncytia formation by 50%."}, "HIV-1(IIIB) [3]": {"tested_on": "HIV-1(IIIB)", "assay": "microbe, parasite or virus in culture", "assay_type": "cell-based", "settings": "CEM cells", "experimental": "To study the antiviral activity in transformed cells, CEM cells were suspended in fresh culture medium and infected with HIV-1(IIIB) or HIV-2(ROD) at 100 x CCID50 (cell culture infective dose 50%) per ml of cell suspension. Infected cell suspension (100 μl; 3 x 10^5 cells/ml) was transferred to a 96-well microplate, mixed with 100 μl of the appropriate dilutions of compounds, and further incubated at 37°C. After 4 days, giant cell formation was recorded microscopically and the number of giant cells was estimated microscopically as percentage of the number of giant cells present in the non-treated virus-infected cell cultures."}},
  "note": "Values joined by “and” are separate entries in the source; they are usually repeats but may differ in a detail not shown here. Identical values can stand only once.",
  "data": [
    {"substance": "6-(butyltelluro)-6-deoxy-β-cyclodextrin [TE-2]", "values": [
      {"measurement": "EC50", "setting": "HIV-1(IIIB) [1]", "value": "15 ± 7", "unit": "µM"},
      {"measurement": "SPR binding to TrxR1", "setting": "TrxR1", "value": "able to specifically bind TrxR1"},
      {"measurement": "IC50", "setting": "[2]", "value": "> 250", "unit": "µM"},
      {"measurement": "Ratio IC50/EC50 HIV-1 (CEM)", "setting": "HIV-1(IIIB) [3]", "value": 227},
      {"measurement": "EC50", "setting": "HIV-1(IIIB) [3]; concentration required to protect against cytopathogenicity of HIV by 50%, mean ± SD, read-out: EC50 HIV-1 (IIIB)", "value": "1.1 ± 0.25", "unit": "µM"},
      {"measurement": "antiviral selectivity SI = IC50/EC50", "setting": "HIV-1(IIIB) [3]; over HIV-1 and HIV-2", "value": "167–227 and > 100"}
    ]}
  ]
}
